target: T1, hKv7.2/hKv7.3 cell line (HEK-hKv7.2/hKv7.3) (Homo sapiens, UniProt O43525+O43526); test: Automated whole cell patch-clamp functional test of the stable cell line; format: cell-based; conditions: stable HEK-hKv7.2/hKv7.3 cell line
T1 construct: P2A self-cleaving peptide between the two subunits (remnant after ribosomal skipping); expressed in transfected cells
Protocol: (§1) A synthesized cDNA fragment encoding human Kv7.3 and human Kv7.2 separated by a P2A sequence was inserted into the pcDNA5/FRT/TO vector using the BamHI and XhoI restriction sites. The construct was then transfected into HEK Flp-In 293 cells using Lipofectamine2000. The transfected cells were grown for 48 hours in DMEM containing 10% (v/v) FBS and 1% PenStrep and subsequently maintained under selection in DMEM containing 10% (v/v) FBS, 1 % PenStrep and 200 ug/mL Hygromycin B at 37°C in a humidified atmosphere of 5% CO2.

T1 sequence (O43525 whole entry): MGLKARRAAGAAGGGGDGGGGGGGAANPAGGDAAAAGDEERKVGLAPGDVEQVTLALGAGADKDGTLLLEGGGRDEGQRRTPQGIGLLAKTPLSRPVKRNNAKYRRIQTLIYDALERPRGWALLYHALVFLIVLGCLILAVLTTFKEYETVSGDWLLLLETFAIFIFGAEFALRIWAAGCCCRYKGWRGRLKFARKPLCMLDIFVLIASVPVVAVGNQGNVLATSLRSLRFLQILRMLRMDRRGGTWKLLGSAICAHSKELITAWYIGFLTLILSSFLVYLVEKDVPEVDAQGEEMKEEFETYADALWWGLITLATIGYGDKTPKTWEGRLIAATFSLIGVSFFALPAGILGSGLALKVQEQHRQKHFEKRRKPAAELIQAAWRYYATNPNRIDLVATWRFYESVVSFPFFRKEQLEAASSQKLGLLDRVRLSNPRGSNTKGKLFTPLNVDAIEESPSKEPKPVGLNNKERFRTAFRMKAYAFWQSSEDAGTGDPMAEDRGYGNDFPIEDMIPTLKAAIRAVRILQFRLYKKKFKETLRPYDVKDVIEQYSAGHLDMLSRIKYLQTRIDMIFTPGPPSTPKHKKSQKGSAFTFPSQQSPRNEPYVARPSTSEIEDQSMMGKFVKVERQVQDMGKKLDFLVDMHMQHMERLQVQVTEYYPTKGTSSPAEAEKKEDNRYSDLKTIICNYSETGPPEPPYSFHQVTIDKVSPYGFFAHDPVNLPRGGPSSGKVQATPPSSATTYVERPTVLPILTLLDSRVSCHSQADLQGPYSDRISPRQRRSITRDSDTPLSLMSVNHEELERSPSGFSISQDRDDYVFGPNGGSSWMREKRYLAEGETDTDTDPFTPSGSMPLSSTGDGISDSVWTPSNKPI
T1 sequence (O43526 whole entry): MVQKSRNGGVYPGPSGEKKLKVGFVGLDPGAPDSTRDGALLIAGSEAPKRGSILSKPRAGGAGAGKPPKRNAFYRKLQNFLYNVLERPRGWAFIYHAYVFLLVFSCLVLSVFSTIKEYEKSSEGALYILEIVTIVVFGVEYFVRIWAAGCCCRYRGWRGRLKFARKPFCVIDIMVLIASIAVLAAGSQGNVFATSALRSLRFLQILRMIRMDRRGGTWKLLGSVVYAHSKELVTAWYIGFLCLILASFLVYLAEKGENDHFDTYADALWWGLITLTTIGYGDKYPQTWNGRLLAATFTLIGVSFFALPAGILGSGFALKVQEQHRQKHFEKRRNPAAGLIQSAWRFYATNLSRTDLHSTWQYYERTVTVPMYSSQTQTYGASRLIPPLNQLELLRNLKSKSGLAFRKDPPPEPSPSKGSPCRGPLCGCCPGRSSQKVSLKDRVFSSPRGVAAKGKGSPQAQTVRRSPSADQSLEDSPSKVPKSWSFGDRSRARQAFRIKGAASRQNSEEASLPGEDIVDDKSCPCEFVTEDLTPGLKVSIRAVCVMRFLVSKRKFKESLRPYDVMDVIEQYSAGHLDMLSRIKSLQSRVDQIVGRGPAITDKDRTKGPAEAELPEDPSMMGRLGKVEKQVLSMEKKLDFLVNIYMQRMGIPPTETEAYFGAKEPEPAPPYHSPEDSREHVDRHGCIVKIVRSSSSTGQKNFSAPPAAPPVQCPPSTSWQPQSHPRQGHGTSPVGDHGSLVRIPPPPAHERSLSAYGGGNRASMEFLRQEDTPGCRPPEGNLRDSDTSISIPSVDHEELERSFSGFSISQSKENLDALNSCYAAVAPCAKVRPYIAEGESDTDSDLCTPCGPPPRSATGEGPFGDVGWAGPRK

| SMILES | effect on Kv7-current |
| --- | --- |
| CCOC(=O)Nc1ccc(NCc2ccc(F)cc2)cc1N [Retigabine, N-(2-amino-4-(4-fluorobenzylamino)-phenyl) carbamic acid ethyl ester] | potentiated |
| O=C1c2ccccc2C(Cc2ccncc2)(Cc2ccncc2)c2ccccc21 [XE991] | sensitive |

target: T2, HEK-hKv7.2/hKv7.3 cells (Homo sapiens, UniProt O43525+O43526); test: Thallium influx assay for potassium channel activation; format: cell-based; conditions: AUC as readout, normalized to a reference compound
T2 construct: P2A self-cleaving peptide between the two subunits (remnant after ribosomal skipping); expressed in transfected cells
Protocol: as §1
The thallium influx assay for potassium channel activation was performed analogously to a published procedure (C.D. Weaver, et al., J Biomol Screen 2004, 9, 671-677) using the FLIPR Potassium Assay kit (Molecular Devices). HEK-hKv7.2/hKv7.3 cells were plated onto 96-well, black-walled, clear-bottomed culture plates (Corning, Acton, MA, USA) at a density of 80,000 cells/well (100 µl/well) if the cells were assayed the following day, or 40,000 cells/well (100 µl/well) if the cells were assayed two days after seeding.
On the assay day, the medium was removed after which 50 uL/well of test compound diluted to 2x final concentration in HBSS containing 20 mM HEPES, and 50 uL/well of 2x dye load buffer were added. The cells were then incubated for 60 min at room temperature in the dark. Chloride-free stimulation buffer containing Tl^+ and K^+ at 5x final concentration (5x concentration: 5 mM in both cases) and test compound at 1x final concentration, were prepared during the incubation. The cells were then assayed in a FDSS7000EX Functional Drug Screening System (Hamamatsu). Following 60 sec of baseline fluorescence signal reading at 0.1 Hz, and 10 sec at 1 Hz, 25 uL/well of stimulation buffer were added and the fluorescence continuously measured for 50 sec at 1 Hz followed, by 4 min at 0.1 Hz. Compound effect was quantified using AUC as readout and normalized to a reference compound, which was included on each plate.

T2 sequence (O43525 whole entry): as the sequence (O43525 whole entry) above
T2 sequence (O43526 whole entry): as the sequence (O43526 whole entry) above

| SMILES | EC50 [µM] |
| --- | --- |
| C[C@H](NC(=O)CC(O)C1CC(F)(F)C1)c1cccc(OC(F)(F)F)c1 (stereo in doubt) [Example 11a, 3-(3,3-Difluorocyclobutyl)-3-hydroxy-N-((S)-1-(3-(trifluoromethoxy)phenyl)ethyl)propanamide] | 1.5 |
| C[C@H](NC(=O)C[C@H](O)C(C)(C)C)c1cccc(OC(F)(F)F)c1 [Example 1a, (S)-3-Hydroxy-4,4-dimethyl-N-((S)-1-(3-(trifluoromethoxy)phenyl)ethyl)pentanamide] | 0.68 |
| C[C@H](NC(=O)C[C@@H](O)C(C)(C)C)c1cccc(OC(F)(F)F)c1 [Example 1b, (R)-3-Hydroxy-4,4-dimethyl-N-[(1S)-1-[3-(trifluoromethoxy)phenyl]ethyl]pentanamide] | 3.3 |
| C[C@H](NC(=O)CC1(O)CC(F)(F)C1)c1cccc(OC(F)(F)F)c1 [Example 5, (S)-2-(3,3-difluoro-1-hydroxycyclobutyl)-N-(1-(3-(trifluoromethoxy)phenyl)ethyl)acetamide] | 1.8 |
| C[C@H](NC(=O)CC1(O)CCC1)c1cccc(OCC(F)(F)F)c1 [Example 6, (S)-2-(1-Hydroxycyclobutyl)-N-(1-(3-(2,2,2-trifluoroethoxy)phenyl)ethyl) acetamide] | 3 |
| C[C@H](NC(=O)CC(O)(C(F)(F)F)C(F)(F)F)c1cccc(OC(F)(F)F)c1 [Example 9, 4,4,4-Trifluoro-3-hydroxy-N-[(1S)-1-[3-(trifluoro-methoxy)phenyl]ethyl]-3-(trifluoromethyl)butanamide] | 0.56 |
| COC[C@H](NC(=O)CC1(O)CCCC1)c1cccc(OC(F)(F)F)c1 [Example 17, (R)-2-(1-Hydroxycyclopentyl)-N-(2-methoxy-1-(3-(trifluoromethoxy)phenyl)ethyl) acetamide] | 2.5 |

From patent EP4241843B1, “ALCOHOL DERIVATIVES AS KV7 POTASSIUM CHANNEL OPENERS” (H. Lundbeck A/S, priority 2018, dated 2019)
